This is an account of results in ChEMBL document CHEMBL2073883, “Interaction of docetaxel ("Taxotere") with human P-glycoprotein” (Jpn J Cancer Res, 1999).

This data set addresses ATP-dependent translocase ABCB1 (Homo sapiens, UniProt P08183). Put plainly: TP_TRANSPORTER: transepithelial transport (basal to apical) in MDR1-expressing LLC-PK1 cells. Format: functional, cell-based. Conditions: pig.

ATP-dependent translocase ABCB1, sequence (P08183 whole entry): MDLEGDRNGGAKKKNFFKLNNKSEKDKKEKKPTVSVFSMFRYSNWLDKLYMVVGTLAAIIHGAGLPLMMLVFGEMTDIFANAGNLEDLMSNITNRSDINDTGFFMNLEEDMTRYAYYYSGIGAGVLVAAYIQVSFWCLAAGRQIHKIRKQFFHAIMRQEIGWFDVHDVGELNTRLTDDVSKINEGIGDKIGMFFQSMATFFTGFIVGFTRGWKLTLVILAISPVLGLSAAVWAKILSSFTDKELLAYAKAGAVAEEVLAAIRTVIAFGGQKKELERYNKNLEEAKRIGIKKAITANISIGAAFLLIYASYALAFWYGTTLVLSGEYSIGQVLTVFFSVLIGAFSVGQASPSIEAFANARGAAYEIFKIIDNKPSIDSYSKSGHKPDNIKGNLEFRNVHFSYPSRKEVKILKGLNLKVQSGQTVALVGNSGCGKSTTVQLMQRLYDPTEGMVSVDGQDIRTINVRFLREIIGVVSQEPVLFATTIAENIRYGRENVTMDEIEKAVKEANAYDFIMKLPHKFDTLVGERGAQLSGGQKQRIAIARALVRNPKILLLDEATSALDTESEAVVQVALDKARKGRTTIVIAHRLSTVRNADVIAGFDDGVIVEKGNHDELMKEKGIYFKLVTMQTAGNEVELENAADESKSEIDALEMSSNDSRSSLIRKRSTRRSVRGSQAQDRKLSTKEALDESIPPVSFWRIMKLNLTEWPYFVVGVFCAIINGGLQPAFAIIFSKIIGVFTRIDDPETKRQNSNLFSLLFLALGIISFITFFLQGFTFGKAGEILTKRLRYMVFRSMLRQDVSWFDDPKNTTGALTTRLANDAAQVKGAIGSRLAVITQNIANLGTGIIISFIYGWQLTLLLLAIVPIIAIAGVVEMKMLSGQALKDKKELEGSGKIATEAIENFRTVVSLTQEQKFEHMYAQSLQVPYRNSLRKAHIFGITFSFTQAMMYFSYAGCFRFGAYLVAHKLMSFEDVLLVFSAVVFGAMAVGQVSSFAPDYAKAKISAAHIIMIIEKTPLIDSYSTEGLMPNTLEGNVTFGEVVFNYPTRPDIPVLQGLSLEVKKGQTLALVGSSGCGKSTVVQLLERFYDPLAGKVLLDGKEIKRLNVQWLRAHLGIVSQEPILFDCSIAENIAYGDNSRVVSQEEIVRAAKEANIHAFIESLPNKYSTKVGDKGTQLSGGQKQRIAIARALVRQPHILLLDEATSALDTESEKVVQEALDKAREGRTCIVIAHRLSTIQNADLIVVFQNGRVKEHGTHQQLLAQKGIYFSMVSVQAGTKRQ

Take `CC(=O)O[C@@]12CO[C@@H]1C[C@H](O)[C@@]1(C)C(=O)[C@H](O)C3=C(C)[C@@H](OC(=O)[C@H](O)[C@@H](NC(=O)OC(C)(C)C)c4ccccc4)C[C@@](O)([C@@H](OC(=O)c4ccccc4)[C@H]21)C3(C)C.O.O.O` [DOCETAXEL]: the Activity entry was “substrate [+]”.
